The source made the active and inactive calls. The rule behind the calls is not given here.
What was measured:
AGS [1] = experiment: Antiproliferative activity against human AGS cells assessed as reduction in cell viability incubated for 72 hrs by CCK-8 assay; format: functional, cell-based
MGC-803 [2] = experiment: Antiproliferative activity against human MGC-803 cells assessed as reduction in cell viability incubated for 72 hrs by CCK-8 assay; format: functional, cell-based; settings: MGC-803, 72 h
[3] = Metabolic stability in human liver microsomes assessed as half life; format: ADME, Microsome
[4] = target: Signal transducer and activator of transcription 3 (Homo sapiens) (UniProt P40763); experiment: Inhibition of STAT3 (unknown origin) transcriptional signaling transfected in HEK293T cells at 3 uM incubated for 24 hrs by firefly luciferase gene reporter assay; format: cell-based
AGS [5] = experiment: Induction of apoptosis in human AGS cells assessed as late apoptotic cells at 3 uM incubated for 48 hrs by Annexin V-FITC/PI staining based flow cytometry method (reference value: 2.46 %); format: functional
MGC-803 [6] = experiment: Antitumor activity against human MGC-803 cells xenografted in BALB/c mouse assessed as inhibition of tumor volume at 15 mg/kg,ip administrated for 21 consecutive days; format: functional, organism-based
MGC-803 [7] = experiment: Inhibition of colony formation in human MGC-803 cells at 0.3 to 3 uM incubated for 10 to 15 days by crystal violet staining based assay; format: functional, cell-based; settings: dose 0.3-3 µM, time 10-15 day
AGS [8] = experiment: Inhibition of colony formation in human AGS cells at 0.3 to 3 uM incubated for 10 to 15 days by crystal violet staining based assay; format: functional, cell-based; settings: dose 0.3-3 µM, time 10-15 day
MGC-803 [9] = experiment: Antitumor activity against human MGC-803 cells xenografted in BALB/c mouse assessed as inhibition of tumor weight at 15 mg/kg,ip administrated for 21 consecutive days; format: functional, organism-based
MGC-803 [10] = experiment: Antitumor activity against human MGC-803 cells xenografted in BALB/c mouse assessed as tumor growth inhibition at 15 mg/kg,ip administrated for 21 consecutive days relative to control; format: functional; settings: read-out: TGI
AGS [11] = experiment: Induction of apoptosis in human AGS cells assessed as late apoptotic cells at 1 uM incubated for 48 hrs by Annexin V-FITC/PI staining based flow cytometry method (reference value: 2.46 %); format: functional
AGS [12] = experiment: Induction of apoptosis in human AGS cells assessed as viable cells at 0.3 uM incubated for 48 hrs by Annexin V-FITC/PI staining based flow cytometry method (reference value: 94.8 %); format: functional; settings: read-out: Activity
AGS [13] = experiment: Induction of apoptosis in human AGS cells assessed as early apoptotic cells at 1 uM incubated for 48 hrs by Annexin V-FITC/PI staining based flow cytometry method (reference value: 2.38 %); format: functional
[14] = target: Signal transducer and activator of transcription 3 (Homo sapiens) (UniProt P40763); experiment: Thermal stabilization of STAT3 in human AGS cells at 1 uM at 37 to 54 degreeC incubated for 1 hr by cellular thermal shift assay; format: cell-based
AGS [15] = experiment: Induction of apoptosis in human AGS cells assessed as necrotic cells at 1 uM incubated for 48 hrs by Annexin V-FITC/PI staining based flow cytometry method (reference value: 0.32 %); format: functional
AGS [16] = experiment: Induction of apoptosis in human AGS cells assessed as necrotic cells at 3 uM incubated for 48 hrs by Annexin V-FITC/PI staining based flow cytometry method (reference value: 0.32 %); format: functional
AGS [17] = experiment: Induction of apoptosis in human AGS cells assessed as viable cells at 1 uM incubated for 48 hrs by Annexin V-FITC/PI staining based flow cytometry method (reference value: 94.8 %); format: functional; settings: read-out: Activity
AGS [18] = experiment: Induction of apoptosis in human AGS cells assessed as early apoptotic cells at 0.3 uM incubated for 48 hrs by Annexin V-FITC/PI staining based flow cytometry method (reference value: 2.38 %); format: functional
AGS [19] = experiment: Induction of apoptosis in human AGS cells assessed as necrotic cells at 0.3 uM incubated for 48 hrs by Annexin V-FITC/PI staining based flow cytometry method (reference value: 0.32 %); format: functional
AGS [20] = experiment: Induction of apoptosis in human AGS cells assessed as early apoptotic cells at 3 uM incubated for 48 hrs by Annexin V-FITC/PI staining based flow cytometry method (reference value: 2.38 %); format: functional
AGS [21] = experiment: Induction of apoptosis in human AGS cells assessed as viable cells at 3 uM incubated for 48 hrs by Annexin V-FITC/PI staining based flow cytometry method (reference value: 94.8 %); format: functional; settings: read-out: Activity
AGS [22] = experiment: Induction of apoptosis in human AGS cells assessed as late apoptotic cells at 0.3 uM incubated for 48 hrs by Annexin V-FITC/PI staining based flow cytometry method (reference value: 2.46 %); format: functional

Chain of Signal transducer and activator of transcription 3 (Homo sapiens) (P40763 whole entry): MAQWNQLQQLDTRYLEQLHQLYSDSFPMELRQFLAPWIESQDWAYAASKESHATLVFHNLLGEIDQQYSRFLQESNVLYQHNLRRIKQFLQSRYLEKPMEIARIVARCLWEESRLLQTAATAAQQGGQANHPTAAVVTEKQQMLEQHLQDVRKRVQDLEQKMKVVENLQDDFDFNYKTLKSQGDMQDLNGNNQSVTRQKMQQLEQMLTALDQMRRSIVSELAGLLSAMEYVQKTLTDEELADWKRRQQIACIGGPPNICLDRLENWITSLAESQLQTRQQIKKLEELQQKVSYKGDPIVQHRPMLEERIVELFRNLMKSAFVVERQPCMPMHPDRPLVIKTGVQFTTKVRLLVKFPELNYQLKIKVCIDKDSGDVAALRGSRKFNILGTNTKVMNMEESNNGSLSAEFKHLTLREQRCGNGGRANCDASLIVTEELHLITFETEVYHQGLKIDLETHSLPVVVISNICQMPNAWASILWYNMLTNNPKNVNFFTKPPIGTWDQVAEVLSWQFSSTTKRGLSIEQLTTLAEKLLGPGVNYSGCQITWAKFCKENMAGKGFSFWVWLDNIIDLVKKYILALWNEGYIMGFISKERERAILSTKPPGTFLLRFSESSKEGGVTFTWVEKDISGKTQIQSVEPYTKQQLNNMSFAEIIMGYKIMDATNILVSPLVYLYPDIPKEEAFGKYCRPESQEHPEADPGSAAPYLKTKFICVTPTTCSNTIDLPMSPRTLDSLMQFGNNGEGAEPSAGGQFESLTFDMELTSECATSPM

SMILES	IC50 (AGS [1]) [µM]	IC50 (MGC-803 [2]) [µM]	half-life [3] [min]	inhibition [4]	other results
O=C(Nc1ccc(-c2cnc3cc(N4CCOCC4)ccn23)cc1)c1ccc([N+](=O)[O-])o1	2.22	7.41	–	–	–
COc1ccn2c(-c3ccc(NC(=O)c4ccc([N+](=O)[O-])o4)c(C)c3C(F)(F)F)cnc2c1	2.1	2.72	50.1	Active	–
COc1ccn2c(-c3ccc(NC(=O)c4ccc([N+](=O)[O-])o4)nc3)cnc2c1	> 20	> 20	–	–	–
COc1ccn2c(-c3ccc(NC(=O)c4ccc([N+](=O)[O-])o4)c(OC)c3)cnc2c1	3.88	7.52	–	–	–
O=C(Nc1ccc(-c2cnc3cc(Cl)ccn23)cc1)c1ccc([N+](=O)[O-])o1	1.7	4.62	–	–	–
O=C(Nc1ccc(-c2cnc3cc(C4=CCNCC4)ccn23)cc1)c1ccc([N+](=O)[O-])o1	1.28	0.79	12.2	Active	–
O=C(Nc1ccc(-c2cnc3ccccn23)cc1)c1ccc([N+](=O)[O-])o1	0.36	0.59	24.7	Active	–
COc1ccn2c(-c3ccc(NC(=O)c4ccc([N+](=O)[O-])o4)cc3C)cnc2c1	0.64	1.03	43	Active	–
O=C(Nc1ccc(-c2cnc3cc(C4=CCN(C5COC5)CC4)ccn23)cc1)c1ccc([N+](=O)[O-])o1	0.79	1.1	–	–	–
O=C(Cc1c(-c2ccccc2)nc2ccccn12)Nc1ccc2c(c1)S(=O)(=O)C=C2	1.55	–	24.2	Active	Activity (AGS [5]): 1.3%; inhibition (MGC-803 [6]): Active; inhibition (MGC-803 [7]): Dose-Dependent Effect; inhibition (AGS [8]): Dose-Dependent Effect; inhibition (MGC-803 [9]): Active; inhibition in vivo at 15 mg/kg (MGC-803 [10]): 54.5%; Activity (AGS [11]): 4.84%; viability at 0.3 µM (AGS [12]): 94.1%; Activity (AGS [13]): 3.19%; Activity [14]: Active; Activity (AGS [15]): 0.19%; Activity (AGS [16]): 0.5%; viability at 1 µM (AGS [17]): 91.8%; Activity (AGS [18]): 2.59%; Activity (AGS [19]): 0.29%; Activity (AGS [20]): 7.98%; viability at 3 µM (AGS [21]): 90.2%; Activity (AGS [22]): 3.01%
O=C(Nc1ccc(-c2cnc3cc(N4CCC4)ccn23)cc1)c1ccc([N+](=O)[O-])o1	> 5	> 5	–	–	–
COc1ccn2c(-c3ccc(NC(=O)c4ccc([N+](=O)[O-])o4)cc3)cnc2c1	0.72	0.86	28.3	Active	–
CN1CCN(c2ccn3c(-c4ccc(NC(=O)c5ccc([N+](=O)[O-])o5)cc4)cnc3c2)CC1	2.34	1.58	–	–	–
CC(=O)N1CC=C(c2ccn3c(-c4ccc(NC(=O)c5ccc([N+](=O)[O-])o5)cc4)cnc3c2)CC1	0.41	0.94	13.5	Active	–
COc1ccn2c(-c3ccc(NC(=O)c4ccc([N+](=O)[O-])o4)c(C)c3)cnc2c1	0.43	1.38	39.9	Active	–
Cc1cc(-c2cnc3ccccn23)ccc1NC(=O)c1ccc([N+](=O)[O-])o1	0.73	1.83	36.7	Active	–
COc1ccn2c(-c3ccc(NC(=O)c4ccc([N+](=O)[O-])o4)cc3OC)cnc2c1	> 20	> 20	–	–	–
O=C(Nc1ccc(-c2cnc3cc(N4CCS(=O)(=O)CC4)ccn23)cc1)c1ccc([N+](=O)[O-])o1	2.13	3.04	–	–	–
COc1ccn2c(-c3ccc(NC(=O)c4ccc([N+](=O)[O-])o4)c(C(F)(F)F)c3)cnc2c1	0.71	2.91	24.2	Active	–
CC1(O)CCN(c2ccn3c(-c4ccc(NC(=O)c5ccc([N+](=O)[O-])o5)cc4)cnc3c2)CC1	1.53	3.1	–	–	–
O=C(Nc1ccc(-c2cnc3cc(N4CCN(C5CC5)CC4)ccn23)cc1)c1ccc([N+](=O)[O-])o1	1.92	1.65	–	–	–
COc1ccn2c(-c3ccc(NC(=O)c4ccc([N+](=O)[O-])o4)cc3F)cnc2c1	0.7	1.08	25.7	Active	–
O=C(Nc1ccc(-c2cnc3cc(Br)ccn23)cc1)c1ccc([N+](=O)[O-])o1	0.56	0.75	–	–	–
CN1CCCN(c2ccn3c(-c4ccc(NC(=O)c5ccc([N+](=O)[O-])o5)cc4)cnc3c2)CC1	2.7	3.58	–	–	–
O=C(Nc1ccc(-c2cnc3cc(N4CCCC4)ccn23)cc1)c1ccc([N+](=O)[O-])o1	1.24	1.15	–	–	–
